These results are taken from ChEMBL document CHEMBL3228011, “trans-5-(3,3,3-Trifluoro-1-propenyl-)-2'-deoxyuridylate: a mechanism-based inhibitor of thymidylate synthetase” (J Med Chem, 1979).

The source made the active and inactive calls. No cut-off for these calls is given here.

Assay [1] concerns the target T1, Thymidylate synthase (Homo sapiens, UniProt P04818). Kind of assay: Competitive inhibition of thymidylate synthetase (unknown origin) in presence of 5,10-methylenetetrahydrofolate.
Target sequence in this assay (P04818 whole entry): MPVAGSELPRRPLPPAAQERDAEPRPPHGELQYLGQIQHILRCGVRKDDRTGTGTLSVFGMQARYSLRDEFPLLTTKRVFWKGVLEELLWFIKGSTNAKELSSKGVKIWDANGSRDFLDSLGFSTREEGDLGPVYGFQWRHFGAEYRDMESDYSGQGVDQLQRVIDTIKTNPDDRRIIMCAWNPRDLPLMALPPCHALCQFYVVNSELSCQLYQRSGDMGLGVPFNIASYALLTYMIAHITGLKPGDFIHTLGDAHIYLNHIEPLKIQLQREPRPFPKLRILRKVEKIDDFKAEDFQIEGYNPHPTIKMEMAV
In assay [2] the target is T1, Thymidylate synthase. Description: Inhibition of thymidylate synthetase (unknown origin) assessed as decrease of first order enzyme activity in absence of 5,10-methylenetetrahydrofolate.
Target sequence in this assay (P04818 2-313 limits assumed): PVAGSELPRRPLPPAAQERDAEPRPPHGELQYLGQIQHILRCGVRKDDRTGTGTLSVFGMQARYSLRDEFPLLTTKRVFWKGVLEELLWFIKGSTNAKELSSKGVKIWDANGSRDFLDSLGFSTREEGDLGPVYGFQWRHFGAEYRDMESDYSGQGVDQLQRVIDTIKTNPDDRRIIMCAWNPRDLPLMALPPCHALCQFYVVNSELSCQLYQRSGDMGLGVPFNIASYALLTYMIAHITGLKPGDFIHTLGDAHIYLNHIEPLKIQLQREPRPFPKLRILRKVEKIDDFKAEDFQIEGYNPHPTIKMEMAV
For assay [3], the target named is T1, Thymidylate synthase. Description: Inhibition of thymidylate synthetase (unknown origin) assessed as decrease of first order enzyme activity in absence of 5,10-methylenetetrahydrofolate and presence of dUMP.
Target sequence in this assay (P04818 2-313 limits assumed): as above
Assay [4] deals with T1, Thymidylate synthase. Kind of assay: Binding affinity to thymidylate synthetase (unknown origin).
Target sequence in this assay (P04818 whole entry): as the sequence (P04818 whole entry) above

On to `O=c1[nH]c(=O)n([C@H]2C[C@H](O)[C@@H](COP(=O)(O)O)O2)cc1/C=C/C(F)(F)F`, for which the Ki at Thymidylate synthase [1] was determined as 8.6 µM. For the same compound, on Thymidylate synthase [2], the inhibition result was “Active”. Moreover, the inhibition result on Thymidylate synthase [3] was “inactive”. For the same compound, binding at Thymidylate synthase [4] was characterised by a dissociation constant (Kd) of 25 µM.
